Paper PMC7278359, “Small molecule AX-024 reduces T cell proliferation independently of CD3ϵ/Nck1 interaction, which is governed by a domain swap in the Nck1-SH3.1 domain” (The Journal of Biological Chemistry, 2020)

Test system: P-Zap70 in primary T cells
Assay: Zap70 phosphorylation in primary T cells, flow cytometry
Format: cell-based, human
Method: Figure 4. […] Healthy donor PBMCs were isolated rested overnight and pretreated with 20 μM AX-024 or vehicle prior to stimulation with 20 μg·ml^−1 (A) or 10 μg·ml^−1 (B) anti-CD3. The cells were gated on live cells, CD3, and CD4 for assessment of P-Zap70. Error bars, S.D.
Human PBMCs from healthy donors were prepared from 50 ml of fresh blood with Ficoll in Leucosep tubes. The tubes were centrifuged at room temperature (30 min, 800 × g) without brake. Isolated cells were washed and staved overnight. The cells were treated with AX-024 or vehicle and incubated for 1 h at 37 °C followed by further incubation on ice. 10, 25, or 50 μg·ml^−1 anti-CD3-biotin (clone OKT3, BioLegend) was added to the cells on ice for 15 min before neutravidin was added at a final concentration of 20 μg·ml^−1 for cross-linking. After stimulation for 3 min at 37 °C, cells were fixed (BD Cytofix fixation buffer) and permeabilized (TruePhos buffer, BioLegend). Staining was performed with CD3-PerCP (clone SK7, BD), CD4-BUV395 (clone SK3, BD), CD8-BV605 (clone RPAT8, BioLegend), and Zap70-PE (clone 65E4, CST). Flow cytometry and data analysis were done as described above.

SMILES: COc1ccc2c(c1)C(c1ccc(F)cc1)=C(CN1CCCC1)CO2.Cl [AX-024, 1-((4-(4-fluorophenyl)-6-methoxy-2H-chromen-3-yl)methyl)pyrrolidine hydrochloride]
- reduction of Zap70 phosphorylation (PBMCs from healthy donors, 20 μM AX-024 pretreatment, 20 or 10 μg·ml^−1 anti-CD3, gated on live, CD3, CD4): does not significantly reduce Zap70 phosphorylation
- reduction of Zap70 phosphorylation (different stimulation conditions, low anti-CD3, no co-stimulation): none of the conditions tested resulted in significant reduction of Zap70 phosphorylation
